For one compound, Vmax and Km results are on record in patent publication US20080194701A1, “Bifunctional Enzyme with Y-Glutamylcysteine Synthetase and Glutathione Synthetase Activity and Uses Thereof” (priority 2004, published 2008).

One test addresses E. coli GS (Escherichia coli, UniProt P04425). Particulars: cited from earlier work.
The next test addresses E. coli γ-GCS (Escherichia coli, UniProt P0A6W9). The settings on record: cited from earlier work.
In a further test the target is S. mutans γ-GCS-GS (Streptococcus mutans serotype c, UniProt Q8DW15). The experiment in a line: γ-GCS activity of S. mutans γ-GCS-GS. The settings on record: substrate Km, γ-GCS activity. From the text: 3′ and 5′ […] 3′ and introduced unique Bgl II and Hind III sites (underlined), respectively.
S. mutans γ-GCS-GS, sequence (Q8DW15 whole entry): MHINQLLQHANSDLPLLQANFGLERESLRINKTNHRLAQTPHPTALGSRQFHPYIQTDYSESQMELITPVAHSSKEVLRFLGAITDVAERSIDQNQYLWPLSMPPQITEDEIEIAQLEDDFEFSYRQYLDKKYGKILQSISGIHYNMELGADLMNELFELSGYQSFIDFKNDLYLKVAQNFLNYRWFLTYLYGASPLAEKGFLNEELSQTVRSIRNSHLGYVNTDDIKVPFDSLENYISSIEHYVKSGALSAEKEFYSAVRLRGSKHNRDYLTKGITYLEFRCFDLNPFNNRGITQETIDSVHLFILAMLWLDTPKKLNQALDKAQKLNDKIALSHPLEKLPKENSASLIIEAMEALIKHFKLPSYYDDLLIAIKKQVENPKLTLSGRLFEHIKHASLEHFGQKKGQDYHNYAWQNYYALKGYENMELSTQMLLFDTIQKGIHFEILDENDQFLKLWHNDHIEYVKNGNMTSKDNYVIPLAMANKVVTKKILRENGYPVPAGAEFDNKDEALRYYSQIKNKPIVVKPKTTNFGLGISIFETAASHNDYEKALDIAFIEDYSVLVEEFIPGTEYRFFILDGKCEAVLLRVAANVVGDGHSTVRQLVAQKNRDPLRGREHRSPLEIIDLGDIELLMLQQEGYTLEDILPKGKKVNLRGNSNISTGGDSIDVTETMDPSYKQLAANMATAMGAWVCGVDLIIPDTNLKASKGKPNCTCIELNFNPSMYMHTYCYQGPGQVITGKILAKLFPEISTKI
For test [1], the target named is T1, E. faecalis γ-GCS-GS (Enterococcus faecalis, UniProt Q82ZG8). The experiment in a line: GS activity of E. faecalis γ-GCS-GS. Particulars: substrate Km, GS activity.
T1 sequence (Q82ZG8 whole entry): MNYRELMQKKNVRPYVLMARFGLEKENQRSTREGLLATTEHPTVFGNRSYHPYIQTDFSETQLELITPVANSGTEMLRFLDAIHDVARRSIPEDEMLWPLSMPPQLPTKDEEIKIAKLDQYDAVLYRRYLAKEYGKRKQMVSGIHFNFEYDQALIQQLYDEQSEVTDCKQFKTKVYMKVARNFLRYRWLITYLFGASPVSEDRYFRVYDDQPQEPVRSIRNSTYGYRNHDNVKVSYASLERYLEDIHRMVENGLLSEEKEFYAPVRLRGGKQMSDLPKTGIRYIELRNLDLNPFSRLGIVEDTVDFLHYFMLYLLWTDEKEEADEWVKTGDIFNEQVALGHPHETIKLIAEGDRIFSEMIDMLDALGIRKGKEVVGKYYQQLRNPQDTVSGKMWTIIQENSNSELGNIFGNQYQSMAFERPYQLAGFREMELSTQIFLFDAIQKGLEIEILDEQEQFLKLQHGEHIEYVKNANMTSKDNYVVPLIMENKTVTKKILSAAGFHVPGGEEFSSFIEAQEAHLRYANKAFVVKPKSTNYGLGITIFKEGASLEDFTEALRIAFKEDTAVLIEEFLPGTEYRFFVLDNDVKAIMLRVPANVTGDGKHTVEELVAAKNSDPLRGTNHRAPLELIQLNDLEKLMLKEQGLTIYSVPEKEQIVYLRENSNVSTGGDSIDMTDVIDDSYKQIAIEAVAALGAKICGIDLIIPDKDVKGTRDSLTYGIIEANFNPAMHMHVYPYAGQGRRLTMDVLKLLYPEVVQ
In another test the target is T2, Human γ-GCS (Homo sapiens, UniProt P48506).
T2 sequence (P48506 1-637): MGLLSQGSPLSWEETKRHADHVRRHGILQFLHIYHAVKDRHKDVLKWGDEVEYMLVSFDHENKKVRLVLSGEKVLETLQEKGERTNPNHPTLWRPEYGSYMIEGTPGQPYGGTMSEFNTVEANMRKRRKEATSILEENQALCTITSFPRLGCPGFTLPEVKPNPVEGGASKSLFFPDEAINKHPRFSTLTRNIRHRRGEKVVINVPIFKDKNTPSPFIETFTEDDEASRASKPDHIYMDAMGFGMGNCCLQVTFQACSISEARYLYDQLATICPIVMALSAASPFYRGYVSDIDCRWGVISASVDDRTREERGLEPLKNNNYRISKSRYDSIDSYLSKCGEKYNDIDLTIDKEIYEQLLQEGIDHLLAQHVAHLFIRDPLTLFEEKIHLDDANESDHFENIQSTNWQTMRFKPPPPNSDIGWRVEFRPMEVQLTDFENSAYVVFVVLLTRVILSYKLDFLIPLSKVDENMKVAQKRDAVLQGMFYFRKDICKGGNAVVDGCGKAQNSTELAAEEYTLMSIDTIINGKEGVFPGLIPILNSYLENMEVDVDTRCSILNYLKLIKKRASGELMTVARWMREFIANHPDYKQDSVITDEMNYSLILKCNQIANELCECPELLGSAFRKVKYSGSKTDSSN
T2 sequence (P48507 1-274 partner): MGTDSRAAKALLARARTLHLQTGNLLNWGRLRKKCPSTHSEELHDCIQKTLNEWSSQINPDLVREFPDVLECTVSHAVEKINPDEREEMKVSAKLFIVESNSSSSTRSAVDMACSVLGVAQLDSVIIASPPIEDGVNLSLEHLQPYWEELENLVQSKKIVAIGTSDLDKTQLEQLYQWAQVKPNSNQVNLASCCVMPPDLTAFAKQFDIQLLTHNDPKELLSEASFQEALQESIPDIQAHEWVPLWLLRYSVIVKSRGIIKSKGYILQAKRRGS
The settings on record: cited from earlier work.

Another test deals with T3, S. agalactiae γ-GCS-GS (Streptococcus agalactiae serotype V, UniProt Q8DXM9).
T3 sequence (Q8DXM9 1-750): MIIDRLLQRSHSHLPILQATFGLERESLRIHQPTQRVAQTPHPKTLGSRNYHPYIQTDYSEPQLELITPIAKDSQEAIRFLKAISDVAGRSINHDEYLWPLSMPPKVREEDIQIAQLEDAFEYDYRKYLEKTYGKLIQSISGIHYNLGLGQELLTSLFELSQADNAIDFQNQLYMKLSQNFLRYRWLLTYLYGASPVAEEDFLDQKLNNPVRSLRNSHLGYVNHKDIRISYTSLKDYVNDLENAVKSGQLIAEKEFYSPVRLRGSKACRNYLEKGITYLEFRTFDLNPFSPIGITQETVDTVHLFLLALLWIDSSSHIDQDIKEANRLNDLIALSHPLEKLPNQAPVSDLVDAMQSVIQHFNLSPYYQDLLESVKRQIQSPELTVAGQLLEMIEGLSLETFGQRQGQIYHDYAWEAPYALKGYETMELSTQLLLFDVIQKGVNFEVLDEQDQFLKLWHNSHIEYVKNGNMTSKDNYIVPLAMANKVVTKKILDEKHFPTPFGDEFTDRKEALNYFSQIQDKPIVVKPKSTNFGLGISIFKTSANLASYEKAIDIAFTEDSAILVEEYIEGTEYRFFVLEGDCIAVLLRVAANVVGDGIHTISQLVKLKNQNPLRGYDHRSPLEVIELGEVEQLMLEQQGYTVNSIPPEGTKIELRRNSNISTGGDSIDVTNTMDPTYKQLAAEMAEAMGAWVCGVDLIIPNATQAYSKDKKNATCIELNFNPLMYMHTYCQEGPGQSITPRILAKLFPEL
The experiment in a line: γ-GCS activity assay based on ADP formation, S. agalactiae γ-GCS-GS. The test is classed as biochemical. On the set-up: corresponded to full-length S. agalactiae γ-GCS-GS with an N-terminal His8-tag; made in house; host or cells: E. coli SG13009 with pQE30-gshAB plus pREP4 or pRARE. The settings on record: γ-GCS activity. On the procedure: In Table 1, a unit was defined as the amount of enzyme activity required to catalyze the formation of 1 μmol of product per hour. Specific activity was shown as units per mg protein. Activity was determined at 37° C. based on ADP formation in reaction mixtures containing L-glutamate and L-cysteine and using pyruvate kinase and lactate dehydrogenase to couple ADP formation to NADH oxidation, which was monitored at 340 nm.
Exp. Purif. 13, 268-276 (1998).
At set time points ranging from one to 30 minutes, 5 μl aliquots were removed and assayed for residual enzyme activity using the standard γ-GCS assay based on ADP formation.

Test [2] addresses T1, E. faecalis γ-GCS-GS. Put plainly: γ-GCS activity of E. faecalis γ-GCS-GS. Particulars: substrate Km, γ-GCS activity.

E. coli γ-GCS, sequence (P0A6W9 whole entry): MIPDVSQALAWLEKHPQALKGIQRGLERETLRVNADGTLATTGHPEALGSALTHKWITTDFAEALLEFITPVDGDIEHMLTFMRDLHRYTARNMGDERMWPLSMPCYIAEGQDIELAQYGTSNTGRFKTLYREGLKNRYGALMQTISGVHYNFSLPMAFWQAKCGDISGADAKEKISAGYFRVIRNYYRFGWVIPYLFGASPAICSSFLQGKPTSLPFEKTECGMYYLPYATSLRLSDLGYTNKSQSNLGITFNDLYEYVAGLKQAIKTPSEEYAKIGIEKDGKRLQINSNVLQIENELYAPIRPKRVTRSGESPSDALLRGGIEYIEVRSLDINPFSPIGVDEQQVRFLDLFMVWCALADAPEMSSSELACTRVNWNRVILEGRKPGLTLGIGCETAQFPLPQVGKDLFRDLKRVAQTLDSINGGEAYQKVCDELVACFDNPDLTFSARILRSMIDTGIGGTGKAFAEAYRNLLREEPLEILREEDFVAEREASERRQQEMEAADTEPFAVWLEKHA
E. coli GS, sequence (P04425 whole entry): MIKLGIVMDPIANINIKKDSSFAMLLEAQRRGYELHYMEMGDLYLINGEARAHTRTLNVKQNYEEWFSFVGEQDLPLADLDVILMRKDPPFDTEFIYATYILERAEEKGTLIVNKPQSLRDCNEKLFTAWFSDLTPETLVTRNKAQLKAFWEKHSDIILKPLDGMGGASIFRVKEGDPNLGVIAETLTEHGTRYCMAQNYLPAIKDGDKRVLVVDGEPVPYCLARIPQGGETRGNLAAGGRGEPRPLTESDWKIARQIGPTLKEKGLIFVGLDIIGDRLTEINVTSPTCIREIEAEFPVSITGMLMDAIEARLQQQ

As a reminder, the Km is the substrate concentration at which the rate is half of its maximum. As to `Nc1ncnc2c1ncn2[C@@H]1O[C@H](COP(=O)(O)OP(=O)(O)OP(=O)(O)O)[C@@H](O)[C@H]1O` [ATP], the Vmax is on record as 650 units/mg on E. coli GS, about 3000 units/mg on E. coli γ-GCS (unit = 1 μmol product per hour), about 1500 units/mg at Human γ-GCS (unit = 1 μmol product per hour) and 1332 ± 120 units/mg at S. agalactiae γ-GCS-GS (unit = 1 μmol product per hour). The Michaelis-Menten constant (Km) at E. coli GS (substrate Km) is 1800 µM; on E. coli γ-GCS (substrate Km) it was 62 µM; on S. mutans γ-GCS-GS it was 288 ± 105 µM; at E. faecalis γ-GCS-GS [1], 179 ± 5 µM; on Human γ-GCS (substrate Km), 400 ± 40 µM; on S. agalactiae γ-GCS-GS (substrate Km), 66 ± 9 µM. Besides, the Km at E. faecalis γ-GCS-GS [2] was determined as 2300 ± 100 µM.
